# From the supplement of paper PMC4862054
# Columns and labels:
# Assay in all cases: normalised response (% of control), CellTiter-Glo; higher = more viable cells (100 = DMSO, 0 = benzethonium chloride kill control)
# Conditions in all cases: incubation time: 72 h
# SK-BR-3 = system: SK-BR-3
# Procedure, shortened: (§1)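 For each plate, 0.1 % DMSO was set to 100 and a positive kill control to 0. Breast cancer cell lines (20 µl suspension) were seeded into 384-well plates already holding compound at 5 concentrations in 10-fold steps over a 10,000-fold range chosen per compound, and incubated for 72 h. CellTox Green fluorescence at 485/520 nm was read before CellTiter-Glo luminescence, which followed 10 min at room temperature. Each value is the normalised signal at one concentration.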
# HCC1599 = system: HCC1599
# Procedure, shortened: as §1
# DU-4475 = system: DU-4475
# Procedure, shortened: as §1
# HCC1143 = system: HCC1143
# Procedure, shortened: as §1
# CAL-51 = system: CAL-51
# Procedure, shortened: as §1
# BT-549 = system: BT-549
# Procedure, shortened: as §1
# MDA-MB-231 = system: MDA-MB-231
# Procedure, shortened: as §1
# MDA-MB-453 = system: MDA-MB-453
# Procedure, shortened: as §1
# CAL-120 = system: CAL-120
# Procedure, shortened: as §1
# MDA-MB-468 = system: MDA-MB-468
# Procedure, shortened: as §1
# CAL-148 = system: CAL-148
# Procedure, shortened: as §1
# HDQ-P1 = system: HDQ-P1
# Procedure, shortened: as §1
# MCF-10A = system: MCF-10A
# Procedure, shortened: as §1
# MDA-MB-436 = system: MDA-MB-436
# Procedure, shortened: as §1
# HCC1937 = system: HCC1937
# Procedure, shortened: as §1
# Hs578T = system: Hs578T
# Procedure, shortened: as §1
# BT-474 = system: BT-474
# Procedure, shortened: as §1
# MFM-223 = system: MFM-223
# Procedure, shortened: as §1
# CAL-85-1 = system: CAL-85-1
# Procedure, shortened: as §1
SMILES,normalised response (SK-BR-3) [%],normalised response (HCC1599) [%],normalised response (DU-4475) [%],normalised response (HCC1143) [%],normalised response (CAL-51) [%],normalised response (BT-549) [%],normalised response (MDA-MB-231) [%],normalised response (MDA-MB-453) [%],normalised response (CAL-120) [%],normalised response (MDA-MB-468) [%],normalised response (CAL-148) [%],normalised response (HDQ-P1) [%],normalised response (MCF-10A) [%],normalised response (MDA-MB-436) [%],normalised response (HCC1937) [%],normalised response (Hs578T) [%],normalised response (BT-474) [%],normalised response (MFM-223) [%],normalised response (CAL-85-1) [%]
COc1cc(CCc2cc(NC(=O)c3ccc(N4CC(C)NC(C)C4)cc3)n[nH]2)cc(OC)c1 (configuration not stated) [AZD4547] (1 nM),106,104,94.6,97,102,94.8,96,91.9,101,97.8,85,98.3,96.7,97.2,98.4,98.6,103,91.9,96.9
CC(=O)OC[C@H]1O[C@@H]([S-])[C@H](OC(C)=O)[C@@H](OC(C)=O)[C@@H]1OC(C)=O.CCP(CC)CC.[Au+] [Auranofin] (0.25 nM),101,75.3,97.9,99,70.1,97.4,104,103,100,95.7,101,99.9,108,93.8,92.3,104,99.4,103,93.8
CC(=O)OC[C@H]1O[C@@H]([S-])[C@H](OC(C)=O)[C@@H](OC(C)=O)[C@@H]1OC(C)=O.CCP(CC)CC.[Au+] [Auranofin] (2.5 nM),104,87.5,105,97.8,111,95.8,108,99.8,92.5,99.2,106,91.3,107,103,94.5,103,99.4,104,95.4
CCC/C=C/C=C/C(=O)O[C@H]1/C(=C/C(=O)OC)C[C@H]2C[C@H]([C@@H](C)O)OC(=O)C[C@H](O)C[C@@H]3C[C@H](OC(C)=O)C(C)(C)[C@](O)(C[C@@H]4C/C(=C/C(=O)OC)C[C@H](/C=C/C(C)(C)[C@]1(O)O2)O4)O3 [Bryostatin 1] (0.01 nM),103,118,107,97.7,92.1,99.1,105,109,96.1,104,101,97.8,108,101,98.6,100,106,105,101
CO[C@@H](C(=O)N1Cc2[nH]nc(NC(=O)c3ccc(N4CCN(C)CC4)cc3)c2C1)c1ccccc1 [Danusertib] (1 nM),90.8,121,99,91.5,101,102,104,110,99.1,101,98.2,93.9,94.2,103,95.5,98,101,94.8,96.3
Cc1nc(Nc2ncc(C(=O)Nc3c(C)cccc3Cl)s2)cc(N2CCN(CCO)CC2)n1 [Dasatinib] (0.1 nM),98.3,99,94.6,96.5,77,98.3,93.9,112,98.9,93.3,96.9,98.9,107,101,98.5,99.7,97.3,99.9,94.2
O=S(=O)(c1cccc2cnccc12)N1CCCNCC1 [Fasudil] (5 nM),101,109,101,96.1,81.8,99.6,101,107,95.5,103,105,103,97.9,98,94.8,97.3,97.4,99.3,102
CS(=O)(=O)N1CCN(Cc2cc3nc(-c4cccc5[nH]ncc45)nc(N4CCOCC4)c3s2)CC1 [Pictilisib] (1 nM),107,96.8,104,–,102,104,101,112,93.9,99.5,93.1,97.3,102,91.1,95,99.7,92.7,104,119
CNC(=O)c1cc(Oc2ccc(NC(=O)Nc3ccc(Cl)c(C(F)(F)F)c3)cc2)ccn1 [Sorafenib] (1 nM),–,109,103,100,119,94.7,102,93.8,98.2,106,114,102,105,96.4,101,102,104,107,104
CC[C@@]1(O)C(=O)OCc2c1cc1n(c2=O)Cc2cc3c(CN(C)C)c(O)ccc3nc2-1 [Topotecan] (10 nM),–,93.2,95.4,93.9,91.9,90.3,94.1,104,96.1,97.6,103,98.4,92.7,94.4,95.8,100,98.2,99.9,95.8
